The text below walks through data of PubChem BioAssay (NCI).

Common to all, as to experiment: growth of human tumour cells (NCI), 48 h
The test system of assay [1] is HL-60(TB) leukemia.
For assay [2], the system named is SK-OV-3 ovarian.
Assay [3] concerns CAKI-1 renal.
In assay [4] the test system is NCI/ADR-RES ovarian.
The subject of assay [5] is UACC-62 melanoma.
Assay [6] deals with OVCAR-8 ovarian.
Assay [7] has as its system A498 renal.
Assay [8] deals with HCT-116 colon.
The subject of assay [9] is RPMI-8226 leukemia.
Assay [10] has as its system 786-0 renal.

“And” between values parts separate entries of the source, which are not always exact repeats. Equal entries are not always repeated.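 In this assay, cells in 96-well plates receive the compound at five concentrations for 48 hours. Endpoints are linearly interpolated between the surrounding concentrations. Here, GI50 denotes the concentration required for 50% inhibition of growth. TGI marks complete inhibition of growth.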

As for `Cc1ccccc1CNc1c2ccccc2nc2ccccc12`, the GI50 in assay [1] was 2.17 µM; in assay [2], 2.62 µM; in assay [3], 1.42 µM; in assay [4] it was 2.07 µM; in assay [5], 1.83 µM; in assay [6] it was 2.63 µM. In addition, the GI50 in assay [7] was 1.42 µM; in [8] it was 1.11 µM; in assay [9] it was 1.52 µM; in [10], 2.54 µM. The TGI in [1] turned out to be 5.06 µM; in assay [2], 9.91 µM; in [3], 3.45 µM; in assay [4], 6.16 µM; in assay [5] it was 4.28 µM; in [6], 12.2 µM. Further, the TGI in assay [7] was 2.96 µM; in [8], 8.31 µM; in assay [9] it was 4.56 µM; in [10], 7.47 µM.

On to `CC(C)C/C(=N\NC(=O)c1ccncc1)c1cc(Cl)ccc1O`, for which the GI50 in assay [1] is 0.295 µM; in assay [2], 0.852 µM; in assay [3], 0.213 µM; in assay [4], 0.289 µM; in assay [5], 0.451 µM; in assay [6], 0.255 µM. For the same compound, the GI50 in assay [7] was 2.12 µM; in [8], 0.244 µM; in assay [9], 0.461 µM; in assay [10], 0.412 µM. Further, the TGI in [1] is 2.26 µM; in assay [2], 32.2 µM; in assay [3], 12.6 µM; in [4], > 23.7 µM; in assay [5], 8.08 µM; in assay [6] it was > 49.2 µM. The TGI was 45.7 µM in assay [7], 11 µM in assay [8], > 50.7 µM in assay [9] and 11.8 µM in assay [10].

As to `Cc1nn2c(-c3nc4cc(Cl)c(Cl)cc4[nH]3)c(-c3ccc(F)cc3)nc2s1`, the GI50 in assay [1] was > 100 µM; in assay [2], 1.98 µM; in assay [3], 7.09 µM; in assay [4] it was 2.7 µM; in [5], 3.49 µM; in [6] it was 2.11 µM. The GI50 in assay [7] was 2.09 µM; in assay [8], 1.3 µM; in assay [9] it was 2.44 µM; in [10], 1.75 µM. In addition, the TGI is > 100 µM in assay [1]; 4.46 µM in assay [2]; > 59.4 µM in assay [3]; > 30.3 µM in assay [4]; > 46.3 µM in [5]; 15 µM in assay [6]. The TGI in assay [7] is 8.37 µM; in [8], > 26 µM; in [9], > 100 µM; in assay [10], 3.33 µM.

As to `O=S(=O)(NCCCNc1nccc(-c2c(-c3cccc(F)c3)nc3occn23)n1)c1cccc2ccccc12`, the GI50 in assay [1] is 4.21 µM; in assay [2], 3.76 µM; in assay [3] it was 3.57 µM; in assay [4], 5.52 µM; in [5], 4.28 µM; in assay [6], 7.02 µM. Also, the GI50 in assay [7] is 8.36 µM; in assay [8], 3.71 µM; in [9], 4.86 µM; in assay [10], 4.94 µM. Also, the TGI in [1] was 72.2 µM; in assay [2] it was > 100 µM; in [3] it was > 100 µM; in [4], > 100 µM; in assay [5] it was > 100 µM; in [6] it was > 100 µM. The TGI in assay [7], in assay [8], in assay [9] and in assay [10] was > 100 µM in each case.

As to `O=C1C2C(C(=O)N1CC[Se][Se]CCN1C(=O)C3C(C1=O)[C@H]1C=C[C@@H]3C1)[C@H]1C=C[C@@H]2C1` (stereo partly specified), the GI50 in [1] was 0.209 µM; in assay [2], 2.94 µM; in [3], 0.301 µM; in assay [4], 0.561 µM; in [5] it was 1.37 µM; in assay [6], 0.404 µM. Moreover, the GI50 is 0.686 µM in assay [7], 0.409 µM in [8], 2.19 µM in [9] and 0.369 µM in assay [10]. In addition, the TGI in [1] turned out to be 0.477 µM; in assay [2], 6.57 µM; in assay [3], 0.828 µM; in [4] it was 3.54 µM; in assay [5], 3.24 µM; in assay [6], 2.28 µM. The TGI in [7] stood at 2.26 µM; in [8] it was 2.87 µM; in assay [9], 5.17 µM; in [10], 1.29 µM.

Regarding `CN(C)c1ccc2c(c1)OC(N)=C(C#N)C2c1ccc2c(c1)CCCN2C` (stereo unspecified), the GI50 in [1] was 2.81 µM; in assay [2], 2.52 µM; in assay [3], 3.33 µM; in assay [4] it was 1.12 µM; in assay [5], 1.55 µM; in assay [6], 3.2 µM. Moreover, the GI50 was 0.228 µM in [7], 1.6 µM in [8], 4.07 µM in [9] and 4.33 µM in assay [10]. For the same compound, the TGI in assay [1] was 8.7 µM; in assay [2] it was 25.8 µM; in assay [3] it was > 100 µM; in assay [4] it was 9.08 µM; in assay [5], 33.9 µM; in assay [6], 27.5 µM. Moreover, the TGI is 4.07 µM in [7], 14.6 µM in assay [8], 31 µM in [9] and > 100 µM in assay [10].

Turning to `N#Cc1cccc(C2C3=C(COC3=O)N(CCO)c3cc4c(cc32)CCC4)c1` (stereo unspecified), the GI50 in assay [1] was 0.132 µM; in [2], 0.215 µM; in assay [3], 0.109 µM; in [4], 0.15 µM; in assay [5] it was 0.028 µM; in [6], 0.237 µM. Further, the GI50 was 0.0411 µM in assay [7], 0.143 µM in assay [8], 0.212 µM in assay [9] and 0.18 µM in assay [10]. Besides, the TGI in assay [1] was 0.383 µM; in assay [2], > 30.5 µM; in assay [3], > 50 µM; in [4], > 50 µM; in assay [5] it was > 50 µM; in [6], > 50 µM. The TGI in assay [7] is 0.303 µM; in assay [8], 13.3 µM; in [9], > 28.1 µM; in assay [10] it was > 50 µM.

As for `Nc1ccn([C@@H]2S[C@H](CO)[C@@H](O)[C@@H]2F)c(=O)n1`, the GI50 in assay [1] is 0.0792 µM; in [2], 0.352 µM; in [3], 0.0412 µM; in assay [4] it was 0.0325 µM; in assay [5], 0.372 µM; in [6] it was 0.026 µM. Moreover, the GI50 in assay [7] is 0.0709 µM; in [8] it was 0.0393 µM; in [9] it was 2.65 µM; in assay [10], 0.109 µM. For the same compound, the TGI was > 100 µM in assay [2]; > 100 µM in assay [3]; > 100 µM in assay [4]; > 38.2 µM in [5]; > 100 µM in assay [6]; > 100 µM in assay [8]. Further, the TGI in assay [9] is > 100 µM.

Take `CC/C(=C(/c1ccc(/C=C/C(=O)O)cc1)c1ccc2[nH]ncc2c1)c1ccc(F)cc1Cl`: the GI50 in assay [1] was 9.3 µM; in assay [2], 16.7 µM; in assay [3], 11.9 µM; in assay [4], 9.08 µM; in assay [5], 5.85 µM; in assay [6], 14.2 µM. The GI50 in assay [7] is 4.75 µM; in [8], 7.45 µM; in assay [9] it was 7.72 µM; in [10], 7.83 µM. Also, the TGI stood at 31 µM in [1]; 30.8 µM in [2]; 25.6 µM in assay [3]; 26.5 µM in [4]; 21.8 µM in [5]; 37.9 µM in [6]. Moreover, the TGI worked out at 17.9 µM in assay [7], 20.8 µM in assay [8], 41 µM in assay [9] and 21.1 µM in assay [10].

As for `N=C(N)c1ccc(OCCCCCOc2ccc(C(=N)N)cc2)cc1`, the GI50 in assay [1] was 7.34 µM; in assay [3], 10.3 µM; in assay [4], 27.3 µM; in [5], 2.02 µM; in assay [6], 2.05 µM; in assay [7], 7.24 µM. The GI50 in assay [8] is 4.59 µM; in assay [9], 3.81 µM and 22.6 µM and 6.87 µM; in assay [10], 12 µM. The TGI in assay [1] is 24 µM and 56 µM and > 100 µM; in assay [2] it was > 50 µM and 29.8 µM and 22.3 µM; in assay [3] it was > 100 µM; in assay [4], > 100 µM; in [5], 9.38 µM and 23.6 µM and 29.6 µM; in assay [6] it was 12.9 µM and 22.5 µM and 86.6 µM. The TGI in assay [7] is > 50 µM; in assay [8] it was > 50 µM and 37.8 µM and > 100 µM; in [9], > 100 µM; in assay [10], > 50 µM and 27.1 µM and 31.8 µM.

Take `COC(=O)[C@]1(C)CCCC2(C)C3=C(CCC21)CC1(CC3)SCCS1` (stereo partly specified): the TGI in assay [1], in [2], in assay [3], in assay [4], in assay [5] and in assay [6] was > 10 µM throughout. The TGI in assay [7], in assay [8], in [9] and in [10] was > 10 µM throughout.
